# Reference: US8163728B2, “Pyrazoles” (Hoffmann-La Roche Inc., priority 2009, dated 2012)
# Target: T1, GABA A α5 (Homo sapiens, UniProt P18507+P31644)
# T1 construct: expressed in transfected cells; host or cells: HEK293 cells, transiently transfected; membranes prepared from cell pellets
# Assay: [3H]flumazenil competition binding, human GABA A α5β3γ2 receptors in HEK293 cell membranes
# Conditions: human receptor α5β3γ2 transiently transfected in HEK293; 0.5 nM [3H]flumazenil; 1 hour at 4° C.; means of two determinations; read-out: hKi GABA A α5
# Summary of the method: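 Competition with [3H]flumazenil for binding to membranes of HEK293 cells transiently expressing human α5β3γ2, in Krebs-tris buffer pH 7.5. Incubated to equilibrium 1 h at 4 °C, filtered and scintillation-counted; Ki values are means of two determinations.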
row,Ki [nM],Compound
1,5.4,"Cc1onc(-c2ccc(F)cc2)c1CNc1cc(C(=O)NC2(C)COC2)n(C)n1 [Example 148, 5-{[3-(4-Fluoro-phenyl)-5-methyl-isoxazol-4-ylmethyl]-amino}-2-methyl-2H-pyrazole-3-carboxylic acid (3-methyl-oxetan-3-yl)-amide]"
2,57.1,"CCNC(=O)c1cc(NCc2c(-c3ccc(F)cc3)noc2C)n[nH]1 [Example 155, 5-{[3-(4-Fluoro-phenyl)-5-methyl-isoxazol-4-ylmethyl]-amino}-2H-pyrazole-3-carboxylic acid ethylamide]"
3,45.1,"CCCCc1noc(CO)c1COc1cc(C(=O)NCC(F)(F)F)n(C)n1 [Example 112, 5-(3-Butyl-5-hydroxymethyl-isoxazol-4-ylmethoxy)-2-methyl-2H-pyrazole-3-carboxylic acid (2,2,2-trifluoro-ethyl)-amide]"
4,20.9,"Cc1onc(-c2ccc(F)cc2)c1CNc1cc(C(=O)NCC(C)(C)O)[nH]n1 [Example 152, 5-{[3-(4-Fluoro-phenyl)-5-methyl-isoxazol-4-ylmethyl]-amino}-2H-pyrazole-3-carboxylic acid (2-hydroxy-2-methyl-propyl)-amide]"
5,1.3,"CCNC(=O)c1cc(/C=C/c2c(-c3ccc(F)cc3)noc2C)nn1C [Example 123, 5-{(E)-2-[3-(4-Fluoro-phenyl)-5-methyl-isoxazol-4-yl]vinyl}-2-methyl-2H-pyrazole-3-carboxylic acid ethylamide]"
6,5.8,"CC(C)NC(=O)c1cc(OCc2c(-c3ccc(Cl)cc3)noc2CO)nn1C [Example 100, 5-[3-(4-Chloro-phenyl)-5-hydroxymethyl-isoxazol-4-ylmethoxy]-2-methyl-2H-pyrazole-3-carboxylic acid isopropylamide]"
7,23.5,"Cc1onc(-c2ccccn2)c1COc1cc(C(=O)NC(C)CO)n(C)n1 (stereo in doubt) [Example 80, 2-Methyl-5-(5-methyl-3-pyridin-2-yl-isoxazol-4-ylmethoxy)-2H-pyrazole-3-carboxylic acid ((S)-2-hydroxy-1-methyl-ethyl)-amide]"
8,0.4,"Cc1onc(-c2ccc(F)cc2)c1/C=C/c1cc(C(=O)NC2CCOCC2)n(C)n1 [Example 125, 5-{(E)-2-[3-(4-Fluoro-phenyl)-5-methyl-isoxazol-4-yl]vinyl}-2-methyl-2H-pyrazole-3-carboxylic acid (tetrahydro-pyran-4-yl)-amide]"
9,1.6,"Cc1onc(-c2ccc(F)cc2)c1/C=C/c1cc(C(=O)NC(C)C)n(C)n1 [Example 122, 5-{(E)-2-[3-(4-Fluoro-phenyl)-5-methyl-isoxazol-4-yl]vinyl}-2-methyl-2H-pyrazole-3-carboxylic acid isopropylamide]"
10,39.6,"CCCCc1noc(CO)c1COc1cc(C(=O)NC2CCC2)n(C)n1 [Example 113, 5-(3-Butyl-5-hydroxymethyl-isoxazol-4-ylmethoxy)-2-methyl-2H-pyrazole-3-carboxylic acid cyclobutylamide]"
11,4.8,"Cc1onc(-c2ccc(F)cc2)c1/C=C/c1cc(C(N)=O)[nH]n1 [Example 142, 5-{(E)-2-[3-(4-Fluoro-phenyl)-5-methyl-isoxazol-4-yl]vinyl}-2H-pyrazole-3-carboxylic acid amide]"
12,1.5,"Cc1onc(-c2ccc(F)cc2)c1/C=C/c1cc(C(N)=O)n(C)n1 [Example 126, 5-{(E)-2-[3-(4-Fluoro-phenyl)-5-methyl-isoxazol-4-yl]vinyl}-2-methyl-2H-pyrazole-3-carboxylic acid amide]"
13,4.1,"Cc1onc(-c2ccc(F)cc2)c1/C=C/c1cc(C(=O)NCC(F)(F)F)[nH]n1 [Example 133, 5-{(E)-2-[3-(4-Fluoro-phenyl)-5-methyl-isoxazol-4-yl]vinyl}-2H-pyrazole-3-carboxylic acid (2,2,2-trifluoro-ethyl)-amide]"
14,3.9,"Cc1onc(-c2ccc(F)cc2)c1CNc1cc(C(=O)NC2CCOCC2)[nH]n1 [Example 156, 5-{[3-(4-Fluoro-phenyl)-5-methyl-isoxazol-4-ylmethyl]-amino}-2H-pyrazole-3-carboxylic acid (tetrahydro-pyran-4-yl)-amide]"
15,99.5,"Cc1onc(-c2ccc(F)cn2)c1CNc1cc(C(=O)NC(C)C)n(C)n1 [Example 163, 3-((3-(5-Fluoropyridin-2-yl)-5-methylisoxazol-4-yl)methylamino)-N-isopropyl-1-methyl-1H-pyrazole-5-carboxamide]"

# Further lines, the compound ahead of its results:
row,Compound,Ki [nM]
1,"Cc1onc(-c2ccc(F)cc2)c1COc1cc(C(=O)NCC2(O)CC2)n(C)n1 [Example 61, 5-[3-(4-Fluoro-phenyl)-5-methyl-isoxazol-4-ylmethoxy]-2-methyl-2H-pyrazole-3-carboxylic acid (1-hydroxy-cyclopropylmethyl)-amide]",7.4
2,5-{(E)-2-[3-(4-Fluoro-phenyl)-5-methyl-isoxazol-4-yl]vinyl}-2H-pyrazole-3-carboxylic acid (2-hydroxy-1-methyl-ethyl)-amide [Example 136],1
3,"Cc1onc(-c2ccc(F)cc2)c1COc1cc(C(=O)NC2(C)COC2)n(C)n1 [Example 58, 5-[3-(4-Fluoro-phenyl)-5-methyl-isoxazol-4-ylmethoxy]-2-methyl-2H-pyrazole-3-carboxylic acid (3-methyl-oxetan-3-yl)-amide]",4.3
4,"Cc1onc(-c2ccc(F)cn2)c1COc1cc(C(=O)NN(C)C)[nH]n1 [Example 22, 5-[3-(5-Fluoro-pyridin-2-yl)-5-methyl-isoxazol-4-ylmethoxy]-2H-pyrazole-3-carboxylic acid N′,N′-dimethyl-hydrazide]",6.7
5,"Cc1onc(-c2ccccn2)c1COc1cc(C(=O)NC2CCOCC2)n[nH]1 [Example 15, 5-(5-Methyl-3-pyridin-2-yl-isoxazol-4-ylmethoxy)-1H-pyrazole-3-carboxylic acid (tetrahydropyran-4-yl)-amide]",2.5
6,"Cc1onc(-c2ccc(F)cc2)c1COc1cc(C(=O)NC(C)(C)CO)n(C)n1 [Example 55, 5-[3-(4-Fluoro-phenyl)-5-methyl-isoxazol-4-ylmethoxy]-2-methyl-2H-pyrazole-3-carboxylic acid (2-hydroxy-1,1-dimethyl-ethyl)-amide]",29.6
7,"Cc1onc(-c2ccccn2)c1COc1cc(C(=O)NC2CCOCC2)n(C)n1 [Example 79, 2-Methyl-5-(5-methyl-3-pyridin-2-yl-isoxazol-4-ylmethoxy)-2H-pyrazole-3-carboxylic acid (tetrahydro-pyran-4-yl)-amide]",6.5
8,"CCCCc1noc(C)c1COc1cc(C(=O)NC(C)C)[nH]n1 [Example 32, 5-(3-Butyl-5-methyl-isoxazol-4-ylmethoxy)-2H-pyrazole-3-carboxylic acid isopropylamide]",15.7
9,"Cc1onc(-c2ccc(F)cn2)c1COc1cc(C(=O)NC(C)C)[nH]n1 [Example 21, 5-[3-(5-Fluoro-pyridin-2-yl)-5-methyl-isoxazol-4-ylmethoxy]-2H-pyrazole-3-carboxylic acid isopropylamide]",2.5
10,"CCCCc1noc(C)c1COc1cc(C(=O)NN2CCCCC2)[nH]n1 [Example 41, 5-(3-Butyl-5-methyl-isoxazol-4-ylmethoxy)-2H-pyrazole-3-carboxylic acid piperidin-1-ylamide]",27.2
11,"Cc1onc(-c2ccccc2)c1COc1cc(C(N)=O)[nH]n1 [Example 7, 5-(5-Methyl-3-phenyl-isoxazol-4-ylmethoxy)-2H-pyrazole-3-carboxylic acid amide]",36.3
